Experiments:
[1] = tested on: FITC-induced contact hypersensitivity; test: FITC-induced contact hypersensitivity in mice (ear swelling, histopathology, ear cytokines); type: in vivo, BALB/c mice; settings: Group 3, 1 mg/mL topical; mean ± standard deviation
Description: Protocol: Male BALB/c mice at 8 weeks old are used in the study.
All animals, except those in Group 1 (Sham), were sensitized topically (TOP) on the shaved abdominal skin with 200 μL of 0.5% Fluorescein Isothiocyanate (FITC) dissolved in 20% tributyrin in acetone on Days 1 and 2. On Day 7, animals were challenged by applying 20 μL of 0.5% FITC solution onto both sides of the right ear. Animals in Group 1 received nothing.
Vehicle, BisEDT test articles and reference compound (tacrolimus) were administered topically (TOP) once daily (QD) from Day 6 to Day 9 for 4 consecutive days (1 hour before FITC challenge on Day 7). The vehicle for BisEDT was phosphate-buffered saline (PBS).
• 2.5 mg/mL BisEDT topical suspension • 1.25 mg/mL BisEDT topical suspension—prepared as a 1:1 dilution of 2.5 mg/mL BisEDT topical suspension in sterile water and vortexed to ensure homogeneity
Analysis: Ear swelling was measured by an experimenter blinded to treatment group, with a dial thickness micrometer gauge as an index of inflammation 30 min before dosing on Days 7, 8, 9 and 10. On Day 10, ear swelling was measured at 24 hours after the last dosing. Ear edema was calculated by subtracting the thickness of Day 7 (normal control) from Day n (treated ear). Percentage inhibition was calculated according to the formula: (Ic−It)/Ic×100, where Ic and It refer to the increase of ear thickness (mm) both in the control and treated animals. Body weight was recorded daily during the study period.
The animals were sacrificed on Day 10 and the ears were then harvested and weighed. Half of the right ear was fixed in 10% formalin for histopathology, and the other half was processed for cytokine measurement (IL-18, IL-6, and IL-10) using ThermoFisher Mouse ProcartaPlex Kit by Luminex.

[2] = tested on: lung tissue of M. abscessus infected mice; test: Lung histopathology in chronic M. abscessus infection study; type: in vivo, SCID/Beige mice; settings: amikacin-treated (100 mg/kg/day), FIG. 5B
Description: After 28 days of treatment with BisEDT, animals were euthanized by CO2 and secondary cardiac puncture to collect whole blood for quantitation of BisEDT concentration. Lungs and spleens from the CFU mice were homogenized with 1:1 H2O:Dey-Englev neutralizing broth to deactivate BisEDT. CFUs were determined after serial dilution. Mice for histology and the lung pair split, one half in formalin the other half weighed and snap frozen in liquid N2 to determine tissue concentration of BisEDT.
Samples for histology were processed by the Veterinary Diagnostic Laboratory. Slides were stained with hematoxylin-eosin (HE stain) for general pathology as well as a slide for acid-fast stain to highlight the mycobacterial infection in lung tissue.

Hypo-InflammaSkin models = test: Ex vivo human skin model of psoriasis (Hypo-InflammaSkin), cytokine release in culture medium; type: cell-based; settings: betamethasone 0.05% topical 25 μL daily Day 0-6
Source text: Background: InflammaSkin® model is a validated psoriasis-like model developed to reproduce key features of pro-Th17/Th1 inflammation associated with psoriasis. It relies on the in situ activation of resident T-cell of normal skin biopsies and their further polarization into Th17/Th1 phenotype with the supplementation of culture medium with a cocktail of pro-inflammatory cytokines.
Model production and culture: 2 HypoSkin models of 15 mm in diameter (1.76 cm^2) were produced from 1 donor and cultured with 2 mL standard HypoSkin® medium. 20 Hypo-InflammaSkin models were produced from 1 donor by inducing in sit activation and Th17/Th1 polarization of skin resident T cells with proprietary cocktail and cultured with 2 mL Hypo-InflammaSkin® culture medium. The total treatable surface area of the models was 113 mm^2, and dosing of BisEDT took this into account based on dosing of the topical treatment. Models were maintained in standard cell culture conditions for the whole culture duration at 37° C., 5% CO2 and water saturation, with appropriate culture medium renewed every day.
Treatment Groups: Model Treatment: (1) HypoSkin® untreated control; (2) Hypo-InflammaSkin® untreated control; (3) topical betamethasone (positive control); (4) topical BisEDT—2.5 mg/mL (treatment applied every day from day 0 to 6; (5) topical BisEDT—1.25 mg/mL (treatment applied every day from day 3 to 6). N=3 per treatment group, except N=5 for Hypo-InflammaSkin® and N=1 for HypoSkin®.
Topical Treatment—Betamethasone (control): 25 μL of betamethasone was topically applied onto the surface of each skin model. Topical application was performed from Day 0 to Day 6 after removal of the previous treatment residues using a cotton swab.
Topical Treatment—BisEDT: 36 μL of the test compound was topically applied onto the surface of each skin model, massaging across the entire surface area for 1 minute, using a parafilm wrapped cotton swab; the compound was left on the skin. Topical application was performed from Day 0 to Day 6 (Treatment Group 4) or Day 3 to Day 6 (Treatment Group 5). A total of 9 models were topically treated.
Culture Media—culture media was collected on Day 3 prior to treatment application and on Day 7 and frozen at −80° C. A total of 42 culture media samples were collected.
IL-22 release: IL-22 release was measured in culture media using ELISA Human IL-22 Quantikine Kit (Bio-techne, ref D2200). Only samples from control conditions 1 to 3 were analyzed to assess donor's response to T cell activation. Each sample was analyzed in duplicate.
MSD Immunoassay—cytokine release (IL-2, IL-13, IL-15, IL-17A, IL-22, TNF-α, INF-γ, MIP-1β, and […]) in the culture medium was measured using the V-PLEX Plus Human Cytokine Kit (KI5089G, MesoScale Discovery) (FIGS. 13D-13S).

SMILES: C=CC[C@@H]1/C=C(\C)C[C@H](C)C[C@H](OC)[C@H]2O[C@@](O)(C(=O)C(=O)N3CCCC[C@H]3C(=O)O[C@H](/C(C)=C/[C@@H]3CC[C@@H](O)[C@H](OC)C3)[C@H](C)[C@@H](O)CC1=O)[C@H](C)C[C@@H]2OC [Tacrolimus, tacrolimus]
- Hyperkeratosis (lesion score) [1]: 0.88 ± 0.64
- Hyperplasia (lesion score) [1]: 1.63 ± 0.52
- Inflammation (lesion score) [1]: 1.38 ± 0.52
- Necrosis (lesion score) [1]: 0.13 ± 0.35
- Total histological score [1]: 4.00 ± 1.69

SMILES: NCC[C@H](O)C(=O)N[C@@H]1C[C@H](N)[C@@H](O[C@H]2O[C@H](CN)[C@@H](O)[C@H](O)[C@H]2O)[C@H](O)[C@H]1O[C@H]1O[C@H](CO)[C@@H](O)[C@H](N)[C@H]1O [amikacin, reference compound]
- lung histomorphologic observation [2]: infiltration of mononuclear phagocytes, interstitial edema, and interstitial hemorrhage

SMILES: C[C@H]1C[C@H]2[C@@H]3CCC4=CC(=O)C=C[C@]4(C)[C@@]3(F)[C@@H](O)C[C@]2(C)[C@@]1(O)C(=O)CO [betamethasone, reference compound]
- IL-22 release, average concentration (ELISA) (Hypo-InflammaSkin models): 16.67 µg/mL
